# Columns and labels:
# Assay in all cases: relative viability (nuclei count vs DMSO), 5 days (fraction); higher = more cells survive
# [1] = compound: CC[C@@H](C)CNCC(=O)N1CCC2=C([C@@H]1COC3=CC=CC(=C3)C)C=CS2 [RU-SKI 43] + COc1cc2c(Oc3ccc(NC(=O)C4(C(=O)Nc5ccc(F)cc5)CC4)cc3F)ccnc2cc1OCCCN1CCOCC1 [Foretinib] (partner 0.25 µM)
# In short: (§1)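 The day after seeding in 1536-well plates, lung cancer cell lines were treated by pin tool with a single drug, or with a fixed anchor-drug dose together with five library-drug doses (not always all listed) in √10 steps. After 5 days, a combined fix-and-stain solution (final 0.05% Triton X-100, 1% formaldehyde, 1 ug/ml Hoechst) was added. Nuclei counted on 4× images gave relative viability as treated counts over vehicle counts, reported as the median of duplicate plates.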
# [2] = compound: CCc1c2c(nc3ccc(OC(=O)N4CCC(N5CCCCC5)CC4)cc13)-c1cc3c(c(=O)n1C2)COC(=O)[C@]3(O)CC [Irinotecan] + COc1cc2c(Oc3ccc(NC(=O)C4(C(=O)Nc5ccc(F)cc5)CC4)cc3F)ccnc2cc1OCCCN1CCOCC1 [Foretinib] (partner 0.25 µM)
# In short: as §1
# [3] = compound: Cn1cc(-c2cnc3ccc4ccc(CS(=O)(=O)NCc5ccccn5)cc4c(=O)c3c2)cn1 [MK-8033] + CC(C)C[C@H](NC(=O)[C@H](Cc1ccccc1)NC(=O)c1cnccn1)B(O)O [Bortezomib] (partner 0.002 µM)
# In short: as §1
# [4] = compound: Cn1cc(-c2cnc3ccc4ccc(CS(=O)(=O)NCc5ccccn5)cc4c(=O)c3c2)cn1 [MK-8033] + CCNC(=O)c1noc(-c2cc(C(C)C)c(O)cc2O)c1-c1ccc(CN2CCOCC2)cc1 [Luminespib] (partner 0.01 µM)
# In short: as §1
Cell Line,relative viability ([1]; first compound 0.1 µM),relative viability ([1]; first compound 0.3162 µM),relative viability ([1]; first compound 1 µM),relative viability ([1]; first compound 3.162 µM),relative viability ([1]; first compound 10 µM),relative viability ([2]; first compound 0.6325 µM),relative viability ([2]; first compound 2 µM),relative viability ([2]; first compound 6.325 µM),relative viability ([2]; first compound 20 µM),relative viability ([3]; first compound 0.02 µM),relative viability ([3]; first compound 0.06325 µM),relative viability ([3]; first compound 0.2 µM),relative viability ([3]; first compound 0.6325 µM),relative viability ([3]; first compound 2 µM),relative viability ([4]; first compound 0.02 µM),relative viability ([4]; first compound 0.06325 µM),relative viability ([4]; first compound 0.2 µM),relative viability ([4]; first compound 0.6325 µM),relative viability ([4]; first compound 2 µM)
BEN,0.789,0.548,0.992,0.53,0.705,0.328,0.613,0.206,0.324,0.937,0.751,0.578,0.631,0.807,0.382,0.419,0.331,0.295,0.455
A-427,1.14,1.03,1.13,1.11,0.969,,0.24,0.229,0.219,0.98,1.11,1.02,0.968,0.954,0.85,0.85,0.83,0.88,0.91
EMC-BAC-2,1.01,0.998,1.04,1.01,0.986,0.691,0.379,0.274,0.44,1,0.947,0.979,1.06,1.06,1.2,1.07,1.12,1.16,1.12
NCI-H1975,1.09,1.28,1.01,0.922,0.939,0.816,0.964,0.385,0.158,0.386,0.328,0.365,0.429,0.367,0.195,0.24,0.176,0.203,0.15
NCI-H1755,0.935,1.07,0.975,0.979,0.919,0.9,0.667,0.35,0.462,0.987,0.834,0.933,0.849,0.835,0.371,0.387,0.411,0.282,0.467
NCI-H2023,0.954,1.1,0.82,0.828,0.558,0.832,0.842,0.295,0.116,1.06,0.89,0.852,0.96,0.778,0.758,0.652,0.652,0.693,0.634
EKVX,0.735,0.712,0.876,0.719,0.499,0.199,0.726,0.529,0.164,1,0.995,0.968,0.712,1.03,0.888,0.905,0.814,0.889,0.842
EPLC-272H,0.717,0.677,0.745,0.744,0.592,0.283,0.235,0.168,0.297,0.932,,0.826,1.09,0.91,0.214,0.339,0.282,0.218,0.475
LCLC-97TM1,0.945,0.938,1.05,1,1.04,0.435,0.172,0.151,0.194,1.14,0.616,0.597,0.654,0.499,0.883,0.662,0.709,0.845,0.669
NCI-H2085,0.928,0.772,0.91,0.93,0.934,1.06,0.775,0.464,0.54,0.956,0.941,0.98,1.08,0.963,0.471,0.483,0.378,0.447,0.415
COR-L23,0.914,1.19,1.24,1.04,0.842,0.525,0.446,0.183,0.192,0.966,0.797,0.868,0.971,1.02,0.696,0.595,0.722,0.661,0.606
HCC-15,1.1,1.17,1.16,1.11,1.04,,0.695,0.23,0.161,1.04,1.01,0.99,1.05,0.952,0.281,0.397,0.263,0.253,0.307
RERF-LC-KJ,0.849,0.976,0.812,0.959,0.913,0.956,0.815,0.518,0.411,1.08,1.21,1.04,1.19,1.03,1.14,1.14,1.25,1.24,1.06
PC-3 [JPC-3],1.02,1.04,1.11,1.06,0.976,0.912,0.667,0.323,0.368,0.813,,0.778,0.848,0.943,0.728,0.618,0.713,0.663,0.713
NCI-H1563,0.918,0.985,0.957,0.855,0.755,0.966,0.928,0.975,0.425,0.951,0.823,0.857,0.833,0.838,0.491,0.589,0.541,0.483,0.539
NCI-H1355,0.914,1.22,1.01,1.02,0.936,,0.622,0.321,0.259,1.25,1.12,1.14,1.21,1.15,0.695,0.686,0.607,0.74,0.646
NCI-H460,0.923,1.16,1.09,1.13,0.97,0.815,0.418,0.136,0.0629,0.908,1.08,1.06,1.28,1.17,0.0295,0.038,0.0269,0.0415,0.0328

Cell Line,relative viability ([1]; first compound 0.1 µM),relative viability ([1]; first compound 0.3162 µM),relative viability ([1]; first compound 1 µM),relative viability ([1]; first compound 3.162 µM),relative viability ([1]; first compound 10 µM),relative viability ([2]; first compound 0.6325 µM),relative viability ([2]; first compound 2 µM),relative viability ([2]; first compound 6.325 µM),relative viability ([2]; first compound 20 µM),relative viability ([3]; first compound 0.02 µM),relative viability ([3]; first compound 0.06325 µM),relative viability ([3]; first compound 0.2 µM),relative viability ([3]; first compound 0.6325 µM),relative viability ([3]; first compound 2 µM),relative viability ([4]; first compound 0.02 µM),relative viability ([4]; first compound 0.06325 µM),relative viability ([4]; first compound 0.2 µM),relative viability ([4]; first compound 0.6325 µM),relative viability ([4]; first compound 2 µM)
NCI-H2228,0.769,0.988,0.879,0.863,0.726,0.925,0.731,0.293,0.238,1.04,0.932,1.08,0.998,1.06,0.178,0.0977,0.163,0.161,0.208
LCLC-103H,0.759,0.896,0.91,0.843,0.783,0.59,0.522,0.373,0.347,1.04,0.986,1.18,1.02,1.12,0.95,0.927,0.954,0.866,0.952
SK-LU-1,0.831,0.979,0.826,0.836,0.638,0.623,0.382,0.295,0.224,1.31,0.955,1.32,0.883,1.18,0.188,0.236,0.223,0.188,0.192
201T,1.04,1.11,1.12,1.07,1.01,,0.991,0.53,0.151,1.13,1.09,1.08,1.07,1.12,0.986,1.07,0.957,1.06,1.03
NCI-H441,0.981,1.01,1.09,1.04,0.842,0.786,0.66,0.29,0.342,0.396,0.309,0.378,0.67,0.929,0.403,0.375,0.352,0.336,0.305
ChaGo-K-1,0.854,1.07,0.98,0.862,0.818,0.65,0.367,0.255,0.248,1.37,0.756,0.98,1.02,0.926,0.679,0.696,0.562,0.636,0.516
SW 1573,0.997,1.21,0.843,1.04,0.887,0.848,0.786,0.463,0.195,1.08,,0.902,0.988,1.05,0.178,0.206,0.719,0.366,0.185
HOP-62,1.1,1.2,1.15,1.24,1.13,0.7,0.256,0.199,0.195,0.932,0.85,0.333,0.555,0.897,0.938,0.794,0.814,0.941,0.86
NCI-H1651,0.896,0.849,0.864,0.888,0.848,0.593,0.59,0.295,0.205,0.988,0.868,0.968,0.999,1.02,1.02,0.846,0.733,0.853,0.874
CAL-12T,1.05,1.31,1.09,1.18,1.06,,0.924,0.398,0.293,0.935,0.946,0.876,1.16,1.01,0.263,0.305,0.518,0.319,0.53
NCI-H2126,1.09,1.05,1.17,1.28,1.33,,1.18,0.67,0.51,1.17,1.11,1.01,1.06,1.07,0.905,0.757,0.817,0.836,0.872
NCI-H650,1.05,1.02,1.1,1.09,1.08,0.981,0.774,0.226,0.15,0.858,0.745,0.737,0.794,0.886,0.827,0.787,0.819,0.833,0.769
COR-L 105,0.995,0.903,1.18,1.04,0.736,1.11,0.8,0.682,0.524,0.852,0.735,0.79,0.945,0.93,0.552,0.79,0.774,0.616,0.677
NCI-H2347,1.04,1.04,1.34,0.842,1.06,0.53,0.662,0.41,0.665,1.1,0.999,0.846,1.03,1.08,0.362,0.277,0.473,0.408,0.556
PC-14,0.872,1.15,1.02,1.07,0.909,0.935,0.806,0.431,0.189,0.898,0.742,0.816,0.809,0.772,0.125,0.128,0.131,0.174,0.224
LOU-NH91,0.953,0.912,0.914,1.01,0.897,0.871,0.756,0.374,0.294,0.455,0.559,0.511,0.554,0.495,0.318,0.335,0.349,0.379,0.326

# — the supplement of paper PMC10307832
